Data: US4973587A, “3-arylcarbonyl-1-aminoalkyl-1H-indole-containing antiglaucoma method” (Sterling Drug Inc., priority 1990, dated 1990)

The compounds below were run on mouse vas deferens (assay: mouse vas deferens test (MVD)). Conditions: Mus musculus, inhibition of contractions in mouse vas deferens preparation in vitro; active at 5.0 μM or less.
Type: cell-based
Excerpt: Med. Assoc. 217, 1392 (1971)]. […] Opth 7, 921-923 (1975); Green and Pederson, Effect of delta-9 Tetrahydrocannabinol on Aqueous Dynamics and Ciliary Body Permeability in the Rabbit Eye., Exptl. Eye Research 15, 499-507 (1973); Colasanti, Craig and Allara, Intraocular Pressure, Ocular Toxicity and Neurotoxicity after Administration of Cannabinol or Cannibigerol, Exptl. Eye Research 39, 252-259 (1984)]. Similarly, synthetic cannabinoids also reduce intraocular pressure [Green, Symunds, Oliver and Elijah, Intraocular Pressure Following Systemic Administration of Cannabinoids, Curr. Eye Research 2, 247-253 (1982); Tiedeman, Shields, Weber, Crow, Coccetto, Harris and Howes, Ophthalmology., 88, 270-277 (1981); Colasanti et al., supra]. Cannabinoid receptor binding sites can be defined as those to which radio-labelled 4-(1,1-dimethylheptyl)-2,3'-dihydroxy-6'alpha-(3-hydroxypropyl)-1',2',3',4',5',6'-hexahydrobiphenyl (CP 55940) binds in a specific and saturable manner, and the binding sites are heterogeneously distributed in the brain [Devane, Dysarz, Johnson, Melvin and Howlett, Determination and Characterization of a Cannabinoid Receptor in Rat Brain, Molecular Pharm. 34, 605-613 (1988)]. Natural and synthetic cannabinoids and representative examples of the compounds of the present invention bind to CP 55940 binding sites. […] It is believed that agonist activity at the cannabinoid receptor mediates the anti-glaucoma actions of cannabinoids, and that agonist activity at this receptor correlates with ocular pressure lowering actions in man.
In the case of `Cc1c(C(=O)C=Cc2cccc3ccccc23)c2ccccc2n1CCN1CCOCC1` [Example 2BO], the IC50 is reported as 130 nM. `COc1cccc(C(=O)c2c(C)n(CCN3CCOCC3)c3ccccc23)c1` [Example 1AA] gave an IC50 of 200 nM. `O=C(c1cn(CCN2CCOCC2)c2ccccc12)c1cccc2ccoc12` [Example 2BL] gave an IC50 of 4 nM. Compound `O=C(c1cccc2ccccc12)c1cn(CCCN2CCOCC2)c2ccccc12` [Example 2AX] has an IC50 of 10 nM. For `O=C(c1cn(CCN2CCOCC2)c2ccccc12)C1CCCc2ccccc21` (centres unmarked) [Example 2BP], the IC50 was 10 nM. In the case of `CC(Cn1cc(C(=O)c2cccc3ccccc23)c2ccccc21)N1CCOCC1` (centres unmarked) [Example 1BX], the IC50 is reported as 60 nM. `CCN(CC)CCCn1c(C)c(C(=O)c2ccc(OC)cc2)c2ccccc21` [Example 3J] showed an IC50 greater than 10000 nM. `O=C(c1cccc2ccccc12)c1cn(CCN2CCOCC2)c2ccc(O)cc12` [Example 5B, 5-hydroxy-3-(1-naphthylcarbonyl)-1-[2-(4-morpholinyl)ethyl]-1H-indole] was tested, and the IC50 was 20 nM. With `COc1ccc(C(=O)c2c(C)n(CCN3CCOCC3)c3c(F)cccc23)cc1` [Example 1J] the IC50 was 73 nM. With `O=C(c1cccc2ccccc12)c1c(Cl)n(CCN2CCOCC2)c2ccccc12` [Example 2BG] the IC50 was 6 nM. For `COc1ccc(C(=O)c2cn(CCCN3CCOCC3)c3ccc(F)cc23)cc1` [Example 1AX], the IC50 was greater than 10000 nM. `COc1ccc(C(=O)c2c(Cl)n(CCN3CCOCC3)c3ccccc23)cc1` [Example 2Q] gave an IC50 of 176 nM. `COc1cc(C(=O)c2c(C)n(CCN3CCOCC3)c3ccccc23)cc(OC)c1OC` [Example 1CB] showed an IC50 of 90 nM. `Cc1ccc(C(=O)c2c(C)n(CCN3CCOCC3)c3ccccc23)cc1` [Example 1Z] gave an IC50 of 440 nM. In the case of `O=C(c1ccc2occc2c1)c1cn(CCN2CCOCC2)c2ccccc12` [Example 2BR], the IC50 is reported as 30 nM. With `Cc1c(C(=O)c2cccc(N)c2)c2ccccc2n1CCN1CCOCC1` [Example 4A, 2-methyl-3-(3-aminobenzoyl)-1-[2 (4-morpholinyl)ethyl]-1H-indole] the IC50 was 700 nM. Compound `Cc1c(C(=O)c2cccc3ccccc23)c2ccccc2n1CCN1CCOCC1C` (centres unmarked) [Example 3K] has an IC50 of 30 nM. `COc1ccc(C(=O)c2c(C)n(C(C)CN3CCOCC3)c3ccccc23)cc1` (centres unmarked) [Example 2G] gave an IC50 of 1300 nM. Work on `Cc1c(C(=O)c2cccc3ccccc23)c2ccccc2n1CCN1CCOC(C)C1` (centres unmarked) [Example 3E] yielded an IC50 of 210 nM. Compound `COc1ccc(C(=O)c2c(C)n(CCN3CCOCC3)c3ccccc23)c2ccccc12` [Example 1AV] has an IC50 of 26 nM. `O=C(c1cccc2cc(Cl)ccc12)c1cn(CCN2CCOCC2)c2ccccc12` [Example 2CE] was tested, and the IC50 was 88 nM. Work on `Cc1c(C(=O)c2cccc3ccccc23)c2ccccc2n1CCCN1CCOCC1` [Example 1BU] yielded an IC50 of 111 nM. `COc1ccc(C(=O)c2c(C)n(CCN3CCOCC3)c3ccccc23)cc1OC` [Example 1AB] gave an IC50 of 68 nM. `COc1ccc(C(=O)c2c(C)n(CCN3CCOCC3)c3ccccc23)c(F)c1` [Example 2AD] gave an IC50 of 180 nM. Compound `CC(CN1CCOCC1)n1cc(C(=O)c2ccccc2F)c2ccccc21` (centres unmarked) [Example 2E] has an IC50 of 2400 nM. For `Cc1c(C(=O)c2cccc3cccnc23)c2ccccc2n1CCN1CCOCC1` [Example 2BB], the IC50 was 129 nM. `COc1ccc(C(=O)c2c(C)n(CCN3CCOCC3)c3cc(Cl)ccc23)cc1` [Example 1L] was tested, and the IC50 was 540 nM. With `Cc1c(C(=O)c2cnc3ccccc3c2)c2ccccc2n1CCN1CCOCC1` [Example 2BC] the IC50 was 570 nM. For `COc1cc(OC)cc(C(=O)c2c(C)n(CCN3CCOCC3)c3ccccc23)c1` [Example 1BQ], the IC50 was 420 nM. In the case of `Cc1ccc2c(C(=O)c3cccc4ccccc34)c(C)n(CCN3CCOCC3)c2c1` [Example 1BV], the IC50 is reported as 15 nM. `Cc1c(C(=O)c2cccc3ccoc23)c2ccccc2n1CCN1CCOCC1` [Example 2BI] gave an IC50 of 17 nM. Work on `Cc1c(C(=O)c2cccc(O)c2O)c2ccccc2n1CCN1CCOCC1` [Example 5A, 2-methyl-3-(2,3-dihydroxybenzoyl)-1-[2-(4-morpholinyl)ethyl]-1H-indole] yielded an IC50 of 180 nM. `O=C(c1ccc2ccoc2c1)c1cn(CCN2CCOCC2)c2ccccc12` [Example 2BK] gave an IC50 of 40 nM. `O=C(c1cccc2occc12)c1cn(CCN2CCOCC2)c2ccccc12` [Example 2BJ] gave an IC50 of 7 nM. Compound `Cc1c(C(=O)c2coc3ccccc23)c2ccccc2n1CCN1CCOCC1` [Example 2N] has an IC50 of 52 nM. `O=C(c1ccccc1F)c1cn(CCN2CCOCC2)c2ccccc12` [Example 2BQ] gave an IC50 of 500 nM. `Cc1c(C(=O)c2c(F)cccc2F)c2ccccc2n1CCN1CCOCC1` [Example 2AG] was tested, and the IC50 was 370 nM. In the case of `Cc1c(C(=O)c2ccccc2)c2ccccc2n1CCN1CCOCC1` [Example 1AE], the IC50 is reported as 700 nM. `COc1ccccc1C(=O)c1c(C)n(CCN2CCOCC2)c2ccccc12` [Example 1R] was tested, and the IC50 was 90 nM. For `COc1ccc(C(=O)c2c(C)n(CCN3CCCC3)c3ccccc23)cc1` [Example 1CI], the IC50 was 240 nM. Work on `Cc1c(C(=O)c2ccc(-n3ccnc3)c3ccccc23)c2ccccc2n1CCN1CCOCC1` [Example 7B] yielded an IC50 of 5 nM. In the case of `COc1ccc(C(=O)c2c(C)n(CCN3CCOCC3)c3c(C)cccc23)cc1` [Example 1D], the IC50 is reported as 178 nM. Compound `CCC(CN1CCOCC1)n1c(C)c(C(=O)c2ccc3ccccc3c2)c2ccccc21` (centres unmarked) [Example 2AV] has an IC50 of 91 nM. Compound `O=C(c1ccc2ccccc2c1)c1cn(CCN2CCOCC2)c2ccccc12` [Example 2CJ] has an IC50 of 31 nM. For `COc1ccc(C=CC(=O)c2c(C)n(CCN3CCOCC3)c3ccccc23)cc1` [Example 2BN], the IC50 was 138 nM. `Cc1cc(C)cc(C(=O)c2c(C)n(CCN3CCOCC3)c3ccccc23)c1` [Example 2AJ] was tested, and the IC50 was 390 nM. With `Cc1c(C(=O)c2cccc3c2OCO3)c2ccccc2n1CCN1CCOCC1` [Example 1BJ] the IC50 was 310 nM. `COc1ccc(C(=O)c2cn(CCCN3CCOCC3)c3ccccc23)cc1` [Example 1BZ] showed an IC50 of 4300 nM. `Cc1c(C(=O)c2ccc3c(c2)OCO3)c2ccccc2n1CCN1CCOCC1` [Example 1-O] showed an IC50 of 1300 nM. Compound `Cc1ccc(C(=O)c2cn(CCN3CCOCC3)c3ccccc23)c2ccccc12` [Example 2CB] has an IC50 of 3 nM. For `Cc1c(C(=O)Cc2ccccc2)c2ccccc2n1CCN1CCOCC1` [Example 2BM], the IC50 was 174 nM. Work on `COc1ccc2cc(C(=O)c3c(C)n(CCN4CCOCC4)c4ccccc34)ccc2c1` [Example 1AW] yielded an IC50 of 460 nM. `Cc1ccccc1C(=O)c1c(C)n(CCN2CCOCC2)c2ccccc12` [Example 2K] gave an IC50 of 710 nM. `Cc1c(C(=O)c2ccc3occc3c2)c2ccccc2n1CCN1CCOCC1` [Example 2AA] gave an IC50 of 125 nM. `COCc1ccc(C(=O)c2c(C)n(CCN3CCOCC3)c3ccccc23)cc1` [Example 2BW] was tested, and the IC50 was 900 nM. For `COc1ccc(C(=S)c2c(C)n(CCN3CCOCC3)c3ccccc23)cc1` [Example 9, 2-methyl-3-(4-methoxyphenylthiocarbonyl)-1-[2-(4-morpholinyl)-ethyl]-1H-indole], the IC50 was 110 nM. In the case of `O=C(c1ccccc1)c1cn(CCN2CCOCC2)c2ccccc12` [Example 1AF], the IC50 is reported as 1100 nM. Compound `Cc1cccc(C)c1C(=O)c1c(C)n(CCN2CCOCC2)c2ccccc12` [Example 1BO] has an IC50 of 1600 nM. For `Cc1c(C(=O)c2cccc(F)c2)c2ccccc2n1C(C)CN1CCOCC1` (centres unmarked) [Example 2AM], the IC50 was 860 nM. For `Cc1c(C(=O)c2ccc(Br)cc2)c2ccccc2n1CCN1CCOCC1` [Example 2AR], the IC50 was 620 nM. `Cc1c(C(=O)c2ccc3ncccc3c2)c2ccccc2n1CCN1CCOCC1` [Example 2AZ] was tested, and the IC50 was 102 nM. In the case of `Cc1c(C(=O)c2cccc3ccccc23)c2ccccc2n1CCN1CCCCC1` [Example 3A, 2-methyl-3-(1-naphthylcarbonyl)-1-[2-(1-piperidinyl)ethyl]-1H-indole], the IC50 is reported as 66 nM. In the case of `Cc1ccc(C(=O)c2c(C)n(CCN3CCOCC3)c3ccccc23)c2ccccc12` [Example 2CA], the IC50 is reported as 9 nM. `O=C(c1ccc(Br)c2ccccc12)c1cn(CCN2CCOCC2)c2ccccc12` [Example 2AW] was tested, and the IC50 was 5 nM. For `Cc1c(C(=O)c2cccc3cc4ccccc4cc23)c2ccccc2n1CCN1CCOCC1` [Example 1CF], the IC50 was 60 nM. `COc1cccc(C(=O)c2c(C)n(CCN3CCOCC3)c3ccccc23)c1OC` [Example 1BP] was tested, and the IC50 was 260 nM. Compound `Cc1c(C(=O)c2ccccc2Cl)c2ccccc2n1CCN1CCOCC1` [Example 2CH] has an IC50 of 91 nM. Compound `O=C(c1ccc2ncccc2c1)c1cn(CCN2CCOCC2)c2ccccc12` [Example 2BF] has an IC50 of 142 nM. Work on `COc1ccc(C(=O)c2cn(CCCN3CCOCC3)c3c(C)cccc23)cc1` [Example 1CD] yielded an IC50 of 40 nM. Compound `COc1ccc(C(=O)c2cn(CCN3CCOCC3)c3c(O)cccc23)cc1` [Example 5C, 7-hydroxy-3-(4-methoxybenzoyl)-1-[2-(4-morpholinyl)ethyl]-1H-indole] has an IC50 of 400 nM. With `Cc1c(C(=O)c2ccc(Cl)cc2Cl)c2ccccc2n1CCN1CCOCC1` [Example 2CF] the IC50 was 200 nM.

Same assay, conditions: inhibition of contractions in mouse vas deferens preparation in vitro; active at 5.0 μM or less
With `Cc1c(C(=O)c2ccccc2F)c2ccccc2n1C(C)CN1CCOCC1` (centres unmarked) [Example 2C] the IC50 was 490 nM. In the case of `COc1ccc(C(=O)c2c(C)n(CCN3CCOCC3)c3ccccc23)cc1` [Example 1F], the IC50 is reported as 1400 nM. `Cc1c(C(=O)c2ccc3cccnc3c2)c2ccccc2n1CCN1CCOCC1` [Example 2BH] gave an IC50 of 88 nM.
